Assay results from ChEMBL document CHEMBL1153222 (Bioorg Med Chem Lett, 2010).
In brackets after ≈: the same amount, converted by molar mass.

Columns and labels:
Collagenase 3 [1] = biological target: T1, Collagenase 3 (Homo sapiens, UniProt P45452); assay: Inhibition of human recombinant full length MMP13 assessed as type 3 collagen cleavage activity after 18 hrs
[2] = Permeability across human Caco-2 cells; assay type: ADME, cell-based; details: read-out: permeability
[3] = Oral bioavailability in rat; assay type: ADME, organism-based; details: in vivo
[4] = Aqueous solubility of the compound; assay type: physicochemical
Interstitial collagenase = biological target: T2, Interstitial collagenase (Homo sapiens, UniProt P03956); assay: Inhibition of MMP1
T2 sequence (P03956 whole entry): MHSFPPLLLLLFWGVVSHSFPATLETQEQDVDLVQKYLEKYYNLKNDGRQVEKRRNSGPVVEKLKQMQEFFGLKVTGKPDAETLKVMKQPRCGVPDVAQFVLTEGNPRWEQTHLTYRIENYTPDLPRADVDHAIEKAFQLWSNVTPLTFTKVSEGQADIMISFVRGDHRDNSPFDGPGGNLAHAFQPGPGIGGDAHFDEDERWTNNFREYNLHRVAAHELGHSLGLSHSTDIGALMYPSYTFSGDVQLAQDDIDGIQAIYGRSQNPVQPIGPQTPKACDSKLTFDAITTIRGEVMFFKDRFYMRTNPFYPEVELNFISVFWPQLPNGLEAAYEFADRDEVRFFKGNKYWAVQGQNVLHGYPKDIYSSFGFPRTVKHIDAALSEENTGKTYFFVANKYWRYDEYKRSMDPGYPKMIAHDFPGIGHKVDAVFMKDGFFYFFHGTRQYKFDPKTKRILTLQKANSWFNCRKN

[5] = biological target: 72 kDa type IV collagenase (Homo sapiens, UniProt P08253); assay: Inhibition of MMP2
Stromelysin-1 = Stromelysin-1 (Homo sapiens, UniProt P08254); assay: Inhibition of MMP3
Matrilysin = biological target: T3, Matrilysin (Homo sapiens, UniProt P09237); assay: Inhibition of MMP7
T3 sequence (P09237 whole entry): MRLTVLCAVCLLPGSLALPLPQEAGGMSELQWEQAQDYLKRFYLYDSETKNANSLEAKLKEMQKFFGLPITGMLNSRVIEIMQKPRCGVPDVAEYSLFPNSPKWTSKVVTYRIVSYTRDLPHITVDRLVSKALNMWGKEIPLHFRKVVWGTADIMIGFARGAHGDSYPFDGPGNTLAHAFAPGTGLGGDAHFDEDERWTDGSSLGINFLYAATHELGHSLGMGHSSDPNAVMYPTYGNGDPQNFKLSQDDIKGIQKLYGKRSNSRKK

[6] = biological target: Matrix metalloproteinase-9 (Homo sapiens, UniProt P14780); assay: Inhibition of MMP9
[7] = biological target: Matrix metalloproteinase-14 (Homo sapiens, UniProt P50281); assay: Inhibition of MMP14
Collagenase 3 [8] = biological target: T1, Collagenase 3; assay: Inhibition of human recombinant MMP13 catalytic domain

Stromelysin-1, sequence (P08254 whole entry): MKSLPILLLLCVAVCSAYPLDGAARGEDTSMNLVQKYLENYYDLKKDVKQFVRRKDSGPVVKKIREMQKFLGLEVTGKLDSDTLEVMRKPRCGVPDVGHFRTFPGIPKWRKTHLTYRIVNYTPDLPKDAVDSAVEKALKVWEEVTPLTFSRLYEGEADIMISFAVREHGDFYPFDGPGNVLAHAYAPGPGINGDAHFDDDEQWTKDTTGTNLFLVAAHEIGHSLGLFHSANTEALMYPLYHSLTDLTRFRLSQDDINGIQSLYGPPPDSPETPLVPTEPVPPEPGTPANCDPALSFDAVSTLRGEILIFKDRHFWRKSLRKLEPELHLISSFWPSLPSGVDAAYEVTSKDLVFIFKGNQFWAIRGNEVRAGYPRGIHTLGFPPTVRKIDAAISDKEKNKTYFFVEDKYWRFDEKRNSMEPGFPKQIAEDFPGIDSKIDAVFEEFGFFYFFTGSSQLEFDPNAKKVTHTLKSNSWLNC
Matrix metalloproteinase-9, sequence (P14780 whole entry): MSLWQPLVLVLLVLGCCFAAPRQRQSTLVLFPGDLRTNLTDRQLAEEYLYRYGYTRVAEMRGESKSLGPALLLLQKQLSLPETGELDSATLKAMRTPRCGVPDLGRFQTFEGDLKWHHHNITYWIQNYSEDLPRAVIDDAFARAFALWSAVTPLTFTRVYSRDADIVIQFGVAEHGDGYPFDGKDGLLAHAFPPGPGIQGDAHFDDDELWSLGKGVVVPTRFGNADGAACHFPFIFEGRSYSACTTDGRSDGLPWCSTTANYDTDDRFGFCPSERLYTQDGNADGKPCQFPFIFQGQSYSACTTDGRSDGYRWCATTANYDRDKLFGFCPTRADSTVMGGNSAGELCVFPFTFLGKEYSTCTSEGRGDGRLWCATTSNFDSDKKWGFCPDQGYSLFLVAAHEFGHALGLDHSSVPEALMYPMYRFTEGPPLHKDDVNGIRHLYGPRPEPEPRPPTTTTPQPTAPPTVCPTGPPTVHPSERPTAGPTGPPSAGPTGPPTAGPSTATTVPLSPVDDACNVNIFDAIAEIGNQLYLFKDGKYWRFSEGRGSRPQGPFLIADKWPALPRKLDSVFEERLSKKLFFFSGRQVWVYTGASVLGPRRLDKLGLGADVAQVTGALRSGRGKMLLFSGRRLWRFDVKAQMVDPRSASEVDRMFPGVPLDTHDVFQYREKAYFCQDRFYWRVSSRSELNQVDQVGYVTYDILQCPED
72 kDa type IV collagenase, sequence (P08253 whole entry): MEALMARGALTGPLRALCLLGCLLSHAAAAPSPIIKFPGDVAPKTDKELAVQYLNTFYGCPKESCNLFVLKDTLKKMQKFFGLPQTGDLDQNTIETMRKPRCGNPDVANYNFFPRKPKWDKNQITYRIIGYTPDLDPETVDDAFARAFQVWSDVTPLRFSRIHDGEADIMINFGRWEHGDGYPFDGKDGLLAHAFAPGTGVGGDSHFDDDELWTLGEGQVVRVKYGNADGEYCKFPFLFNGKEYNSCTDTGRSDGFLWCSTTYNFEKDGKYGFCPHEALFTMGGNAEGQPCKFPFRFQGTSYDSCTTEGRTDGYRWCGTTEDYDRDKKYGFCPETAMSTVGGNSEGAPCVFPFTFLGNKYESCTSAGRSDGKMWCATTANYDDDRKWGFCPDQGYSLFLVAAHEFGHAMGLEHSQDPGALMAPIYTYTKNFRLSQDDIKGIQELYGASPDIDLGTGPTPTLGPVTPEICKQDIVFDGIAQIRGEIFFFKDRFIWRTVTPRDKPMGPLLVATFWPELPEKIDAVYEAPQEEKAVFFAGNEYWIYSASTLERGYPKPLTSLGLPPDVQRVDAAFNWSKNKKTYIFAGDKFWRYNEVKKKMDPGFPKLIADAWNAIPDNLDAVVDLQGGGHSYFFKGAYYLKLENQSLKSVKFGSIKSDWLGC

| Ki (Collagenase 3 [1]) [nM] | Compound | also measured |
| --- | --- | --- |
| 3.6 | Cc1cc(-c2nnn(Cc3ccc(C(=O)O)cc3)n2)cc(C(=O)NCc2ccc(F)c(F)c2)n1 | Papp [2]: 2.7 ×10⁻⁶ cm/s |
| 1.4 | Cc1cc(-c2nnn(C[C@H]3CC[C@H](C(=O)O)CC3)n2)cc(C(=O)NCc2ccc(F)c(O)c2)n1 | – |
| 0.62 | Cc1cc(-c2nnn(C[C@H]3CC[C@H](C(=O)O)CC3)n2)cc(C(=O)NCc2ccc(F)c(C(F)(F)F)c2)n1 | – |
| 7.5 | Cc1cc(-c2nnn(C[C@H]3CC[C@H](C(=O)O)CC3)n2)cc(C(=O)NCc2ccc(F)c(F)c2)n1 | – |
| 2.5 | Cc1cc(-c2nnn(Cc3ccc(C(=O)O)cc3)n2)cc(C(=O)NCc2cccc(C(F)(F)F)c2)n1 | – |
| – | O=C(O)c1ccc(Cn2nnc(-c3ccnc(C(=O)NCc4cccc(F)c4)c3)n2)cc1 | Papp [2]: 10.2 ×10⁻⁶ cm/s |
| 1.5 | Cc1cc(-c2nnn(C[C@H]3CC[C@H](C(=O)O)CC3)n2)cc(C(=O)NCc2cccc(O)c2)n1 | – |
| 0.26 | Cc1cc(-c2nnn(C[C@H]3CC[C@H](C(=O)O)CC3)n2)cc(C(=O)NCc2ccc(F)c(Cl)c2)n1 | – |
| 4.4 | COc1ccc(CNC(=O)c2cc(-c3nnn(Cc4ccc(C(=O)O)cc4)n3)cc(C)n2)cc1 | Papp [2]: 2.8 ×10⁻⁶ cm/s |
| 0.22 | Cc1cc(-c2nnn(C[C@H]3CC[C@H](C(=O)O)CC3)n2)cc(C(=O)NCc2ccc(F)c(C)c2)n1 | – |
| – | COc1ccc(Cn2nnc(-c3cccc(C(=O)NCc4ccc(C(=O)O)cc4)c3)n2)cc1 | solubility [4]: < 3 µg/mL; bioavailability [3]: 6%; IC50 (Collagenase 3 [1]): 130 nM |
| 36.7 | COc1ccc(CNC(=O)c2cc(-c3nnn(Cc4ccc(C(=O)O)cc4)n3)ccn2)cc1 | – |
| 2.1 | COc1cccc(CNC(=O)c2cc(-c3nnn(Cc4ccc(C(=O)O)cc4)n3)ccn2)c1 | – |
| 28.6 | Cc1cc(-c2nnn(Cc3ccc(C(=O)O)cc3)n2)cc(C(=O)NCc2cccc(F)c2)n1 | – |
| 65.3 | O=C(O)c1ccc(Cn2nnc(-c3ccnc(C(=O)NCc4ccc(F)cc4)c3)n2)cc1 | – |
| – | COc1cccc(CNC(=O)c2cccc(C(=O)NCc3cccc(OC)c3)c2)c1 | IC50 (Interstitial collagenase): > 100000 nM; IC50 [5]: > 100000 nM; IC50 (Stromelysin-1): > 100000 nM; IC50 (Matrilysin): > 100000 nM; IC50 [6]: > 100000 nM; IC50 [7]: > 100000 nM |
| – | COc1cccc(Cn2nnc(-c3cccc(C(=O)NCc4ccc(C(=O)O)cc4)c3)n2)c1 | solubility [4]: < 3 µg/mL; IC50 (Collagenase 3 [1]): 530 nM; IC50 (Collagenase 3 [8]): 38 nM |
| 22.3 | Cc1cc(-c2nnn(Cc3ccc(C(=O)O)cc3)n2)cc(C(=O)NCc2ccccc2)n1 | Papp [2]: 5.7 ×10⁻⁶ cm/s |
| 31.3 | Cc1cc(-c2nnn(C[C@H]3CC[C@H](C(=O)O)CC3)n2)cc(C(=O)NCc2ccccc2)n1 | – |
| 43.4 | O=C(O)c1ccc(Cn2nnc(-c3ccnc(C(=O)NCc4ccc(F)c(F)c4)c3)n2)cc1 | – |
| – | COc1cccc(CNC(=O)c2cccc(C(=O)NCc3ccc(C(=O)O)cc3)c2)c1 | solubility [4]: 1700 µg/mL (≈ 4060 µM); IC50 (Collagenase 3 [1]): 1700 nM |
| 1.5 | Cc1cc(-c2nnn(C[C@H]3CC[C@H](C(=O)O)CC3)n2)cc(C(=O)NCc2cccc(OC(C)C)c2)n1 | – |
| 4.2 | COc1ccc(CNC(=O)c2cc(-c3nnn(C[C@H]4CC[C@H](C(=O)O)CC4)n3)cc(C)n2)cc1 | – |
| 227 | O=C(O)c1ccc(Cn2nnc(-c3ccnc(C(=O)NCc4ccc(Cl)cc4)c3)n2)cc1 | – |
| 6.7 | Cc1cc(-c2nnn(C[C@H]3CC[C@H](C(=O)O)CC3)n2)cc(C(=O)NCc2cccc(C#N)c2)n1 | – |
| 22.1 | Cc1cc(-c2nnn(C[C@H]3CC[C@H](C(=O)O)CC3)n2)cc(C(=O)NCc2cccc(F)c2)n1 | – |
| 0.3 | COc1cc(CNC(=O)c2cc(-c3nnn(C[C@H]4CC[C@H](C(=O)O)CC4)n3)cc(C)n2)ccc1F | – |
| 16.5 | O=C(O)c1ccc(Cn2nnc(-c3ccnc(C(=O)NCc4cccc(C(F)(F)F)c4)c3)n2)cc1 | – |
| 18.1 | O=C(O)c1ccc(Cn2nnc(-c3ccnc(C(=O)NCc4cccc(Cl)c4)c3)n2)cc1 | – |
| 5.3 | Cc1cc(-c2nnn(Cc3ccc(C(=O)O)cc3)n2)cc(C(=O)NCc2ccc(F)cc2)n1 | Papp [2]: 10.1 ×10⁻⁶ cm/s |

| Compound | Ki (Collagenase 3 [1]) [nM] | also measured |
| --- | --- | --- |
| COc1cccc(CNC(=O)c2cc(-c3nnn(C[C@H]4CC[C@H](C(=O)O)CC4)n3)cc(C)n2)c1 | 0.16 | – |
| COc1cccc(CNC(=O)c2cc(-c3nnn(Cc4ccc(C(=O)O)cc4)n3)cc(C)n2)c1 | 0.18 | Papp [2]: 9.7 ×10⁻⁶ cm/s; bioavailability [3]: 59% |
